According to ChEMBL document CHEMBL4706623, “GPR52 Antagonist Reduces Huntingtin Levels and Ameliorates Huntington's Disease-Related Phenotypes” (J Med Chem, 2021):
pIC50: −log10 of the molar value. Active and inactive are the calls of the source. No cut-off for these calls is given here.

Key:
[1] = target: G-protein coupled receptor 52 (Homo sapiens, UniProt Q9Y2T5); assay: Antagonist activity at GPR52 (unknown origin) expressed in HEK293 cells assessed as inhibition of WO459-induced cAMP accumulation preincubated for 15 mins followed by WO459 addition and measured after 30 mins by LANCE Ultra cAMP kit based microplate reader analysis; type: functional, cell-based; conditions: read-out: IC50
Sequence of G-protein coupled receptor 52 (Q9Y2T5 whole entry): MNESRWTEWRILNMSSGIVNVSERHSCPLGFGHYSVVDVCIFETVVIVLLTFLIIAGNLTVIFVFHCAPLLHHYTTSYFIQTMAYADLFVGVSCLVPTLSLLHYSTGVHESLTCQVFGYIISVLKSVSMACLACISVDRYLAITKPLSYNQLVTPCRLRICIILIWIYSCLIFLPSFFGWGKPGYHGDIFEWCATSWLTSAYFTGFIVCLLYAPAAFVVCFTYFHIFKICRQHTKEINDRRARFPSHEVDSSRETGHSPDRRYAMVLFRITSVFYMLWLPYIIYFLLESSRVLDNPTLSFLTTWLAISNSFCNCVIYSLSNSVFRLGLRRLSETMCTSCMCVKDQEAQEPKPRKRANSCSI

[2] = Neurotoxicity in wild type mouse assessed as motor deficiency by measuring latency to fall at 5 mg/kg, iv QD for 4 weeks by rotarod test; type: toxicity, organism-based; conditions: in vivo, 672 h
[3] = target: G-protein coupled receptor 52 (Mus musculus) (UniProt P0C5J4); assay: In vivo antagonist activity at GPR52 in wild type mouse model assessed as reduction in mHTT aggregate levels in striatum in presence of 4C9 antibody labelled with terbium at 5 mg/kg, iv QD for 4 weeks by TR-FRET analysis; type: functional, organism-based
Sequence of G-protein coupled receptor 52 (Mus musculus) (P0C5J4 whole entry): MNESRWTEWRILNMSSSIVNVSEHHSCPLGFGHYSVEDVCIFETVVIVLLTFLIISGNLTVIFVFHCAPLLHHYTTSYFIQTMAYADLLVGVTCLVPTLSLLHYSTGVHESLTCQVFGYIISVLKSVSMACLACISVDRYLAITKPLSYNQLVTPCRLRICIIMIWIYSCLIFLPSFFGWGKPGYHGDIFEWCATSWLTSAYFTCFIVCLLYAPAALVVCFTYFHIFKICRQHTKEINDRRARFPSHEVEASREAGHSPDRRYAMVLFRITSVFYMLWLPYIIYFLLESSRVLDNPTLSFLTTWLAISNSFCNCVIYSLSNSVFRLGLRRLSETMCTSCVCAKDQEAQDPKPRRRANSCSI

[4] = target: Glucagon-like peptide 1 receptor (Homo sapiens) (UniProt P43220); assay: Antagonist activity at GLP-1R (unknown origin) expressed in HEK293 cells assessed as inhibition of GLP1-induced cAMP accumulation; type: functional, cell-based
Sequence of Glucagon-like peptide 1 receptor (Homo sapiens) (P43220 whole entry): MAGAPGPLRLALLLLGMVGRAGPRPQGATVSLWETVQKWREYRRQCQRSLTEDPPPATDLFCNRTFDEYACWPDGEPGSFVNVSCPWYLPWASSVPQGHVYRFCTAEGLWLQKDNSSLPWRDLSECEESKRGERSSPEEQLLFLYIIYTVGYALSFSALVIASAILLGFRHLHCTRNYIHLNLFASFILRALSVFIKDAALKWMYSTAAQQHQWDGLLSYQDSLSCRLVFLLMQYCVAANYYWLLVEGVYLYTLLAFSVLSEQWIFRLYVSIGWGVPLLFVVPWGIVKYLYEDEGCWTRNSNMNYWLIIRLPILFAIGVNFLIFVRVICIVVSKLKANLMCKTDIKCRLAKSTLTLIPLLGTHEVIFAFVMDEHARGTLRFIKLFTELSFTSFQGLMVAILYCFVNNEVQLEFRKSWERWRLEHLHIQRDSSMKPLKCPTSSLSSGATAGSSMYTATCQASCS

[5] = system: Neuron; assay: Neuroprotective activity in neurons from HdhQ7/Q140 mouse assessed as rescue from mHTT-induced neuronal loss by measuring reduction in caspase 3 activity at 3 uM incubated for 48 hrs maintained in absence of growth factor N2 and B27 under starvation condition by green fluorescent dye based assay; type: functional, tissue-based
[6] = target: G-protein coupled receptor 52 (Mus musculus) (UniProt P0C5J4); assay: In vivo antagonist activity at GPR52 in wild type mouse model assessed as reduction in mHTT aggregate levels in striatum in presence of 4C9 antibody labelled with D2 fluorophore at 5 mg/kg, iv QD for 4 weeks by TR-FRET analysis; type: functional, organism-based
[7] = target: G-protein coupled receptor 52 (Mus musculus) (UniProt P0C5J4); assay: In vivo antagonist activity at GPR52 in HdhQ140 knock-in mouse model assessed as reduction in soluble mHTT levels in cortex at 5 mg/kg, iv QD for 4 weeks by TR-FRET analysis; type: functional, organism-based
[8] = target: G-protein coupled receptor 52 (Mus musculus) (UniProt P0C5J4); assay: In vivo antagonist activity at GPR52 in HdhQ140 knock-in mouse model assessed as reduction in mHTT aggregate levels in striatum at 0.5 mM, icv QD for 3 weeks by S380 antibody based immunostaining based analysis; type: functional
[9] = target: G-protein coupled receptor 52 (Mus musculus) (UniProt P0C5J4); assay: In vivo antagonist activity at GPR52 in wild type mouse model assessed as reduction in mHTT aggregate levels in cortex in presence of 4C9 antibody labelled with terbium at 5 mg/kg, iv QD for 4 weeks by TR-FRET analysis; type: functional, organism-based
[10] = Drug uptake in wild type mouse brain at 5 mg/kg, iv measured 0.5 to 6 hrs; type: ADME, organism-based; conditions: in vivo, time 0.5-6 hrs, read-out: Drug uptake
[11] = target: G-protein coupled receptor 52 (Mus musculus) (UniProt P0C5J4); assay: Antagonist activity at GPR52 in mouse STHdhQ7/111 cells assessed as decrease in wild type HTT levels at 1 to 10 uM incubated for 48 hrs in presence of 2B7-terbium and 2166-D2 antibodies by western blot analysis; type: cell-based; conditions: filed as antagonist, dose 1-10 µM
[12] = system: Mus musculus; assay: Neuroprotective activity in HdhQ140 knock-in mouse model assessed as decrease in staining intensity of microglia in striatum at 5 mg/kg, iv QD for 4 weeks by Iba1 staining based immunostaining analysis; type: functional, organism-based
[13] = target: G-protein coupled receptor 52 (Mus musculus) (UniProt P0C5J4); assay: Antagonist activity at GPR52 in neurons from HdhQ7/Q140 mouse assessed as decrease in wild type HTT levels at 0.3 to 3 uM incubated for 48 hrs in presence of 2B7-terbium and 2166-D2 antibodies by western blot analysis; type: tissue-based; conditions: Neuron, filed as antagonist, dose 0.3-3 µM
[14] = target: G-protein coupled receptor 52 (Mus musculus) (UniProt P0C5J4); assay: In vivo antagonist activity at GPR52 in wild type mouse model assessed as reduction in mHTT aggregate levels in cortex in presence of 4C9 antibody labelled with D2 fluorophore at 5 mg/kg, iv QD for 4 weeks by TR-FRET analysis; type: functional, organism-based
[15] = system: Mus musculus; assay: Neuroprotective activity in HdhQ140 mouse model assessed as latency to fall at 5 mg/kg, iv QD for 4 weeks by rotarod test; type: functional, organism-based
[16] = target: T1, Alpha-1D adrenergic receptor (Homo sapiens) (UniProt P25100); assay: Antagonist activity at alpha1D adrenergic receptor (unknown origin) expressed in HEK293 cells assessed as inhibition of phenylephrine-induced cAMP accumulation; type: functional, cell-based
T1 sequence (whole entry): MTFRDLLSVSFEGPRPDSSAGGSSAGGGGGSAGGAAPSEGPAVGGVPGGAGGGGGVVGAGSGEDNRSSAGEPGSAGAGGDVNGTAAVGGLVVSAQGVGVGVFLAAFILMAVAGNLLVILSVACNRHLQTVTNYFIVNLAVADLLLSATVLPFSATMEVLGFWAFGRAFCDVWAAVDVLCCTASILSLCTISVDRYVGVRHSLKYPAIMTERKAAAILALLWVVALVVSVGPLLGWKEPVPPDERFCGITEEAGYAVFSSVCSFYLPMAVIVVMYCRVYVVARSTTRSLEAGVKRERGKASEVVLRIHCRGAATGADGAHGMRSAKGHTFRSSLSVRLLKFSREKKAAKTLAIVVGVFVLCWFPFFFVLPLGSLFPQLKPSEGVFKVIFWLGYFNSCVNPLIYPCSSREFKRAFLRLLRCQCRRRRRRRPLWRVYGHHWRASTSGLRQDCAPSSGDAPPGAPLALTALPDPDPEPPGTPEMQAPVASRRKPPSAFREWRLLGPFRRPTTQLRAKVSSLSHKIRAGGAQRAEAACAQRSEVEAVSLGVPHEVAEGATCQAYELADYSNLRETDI

[17] = target: G-protein coupled receptor 52 (Mus musculus) (UniProt P0C5J4); assay: Antagonist activity at GPR52 in mouse STHdhQ7/111 cells assessed as decrease in mHTT levels incubated for 48 hrs in presence of 2B7-terbium and 2166-D2 antibodies by TR-FRET; type: cell-based; conditions: filed as antagonist, dose 0.3-10 µM
[18] = target: Beta-2 adrenergic receptor (Homo sapiens) (UniProt P07550); assay: Antagonist activity at beta2 adrenergic receptor (unknown origin) expressed in HEK293 cells assessed as inhibition of isoproterenol-induced cAMP accumulation; type: functional, cell-based
Sequence of Beta-2 adrenergic receptor (Homo sapiens) (P07550 whole entry, looked up): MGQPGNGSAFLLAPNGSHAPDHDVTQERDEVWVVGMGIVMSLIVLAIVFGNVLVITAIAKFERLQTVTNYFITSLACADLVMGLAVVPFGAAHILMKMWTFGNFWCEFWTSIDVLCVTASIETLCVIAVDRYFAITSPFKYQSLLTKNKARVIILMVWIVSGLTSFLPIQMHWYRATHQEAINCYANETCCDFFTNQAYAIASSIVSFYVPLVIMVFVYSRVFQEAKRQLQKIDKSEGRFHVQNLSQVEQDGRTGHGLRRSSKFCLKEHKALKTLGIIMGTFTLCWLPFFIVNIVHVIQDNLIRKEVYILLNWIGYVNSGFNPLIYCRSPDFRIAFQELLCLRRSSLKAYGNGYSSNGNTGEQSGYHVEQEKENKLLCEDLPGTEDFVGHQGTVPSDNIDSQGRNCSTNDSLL

[19] = target: G-protein coupled receptor 52 (Mus musculus) (UniProt P0C5J4); assay: In vivo antagonist activity at GPR52 in HdhQ140 knock-in mouse model assessed as reduction in mHTT levels in cortex at 0.5 mM, icv QD for 3 weeks by TR-FRET analysis; type: functional
[20] = target: G-protein coupled receptor 52 (Mus musculus) (UniProt P0C5J4); assay: In vivo antagonist activity at GPR52 in wild type mouse model assessed as reduction in soluble mHTT levels at 5 mg/kg, iv QD for 4 weeks by TR-FRET analysis; type: functional, organism-based
[21] = system: Mus musculus; assay: Neuroprotective activity in HdhQ140 mouse model assessed as rescue of motor deficiency by measuring crossing time at 5 mg/kg, iv QD for 4 weeks by balance beam test; type: functional, organism-based

- pIC50 [1]: 6.20
- Activity [3]: inactive
- Activity [4]: inactive
- Activity [5]: Active
- Activity [6]: inactive
- Activity [7]: inactive
- Activity [8]: Active
- Activity [9]: inactive
- concentration [10]: 20 nM
- Activity [11]: Active
- Activity [13]: Active
- Activity [14]: inactive
- Activity [16]: inactive
- Activity [17]: Dose-dependent effect
- Activity [18]: inactive
- Activity [19]: inactive
- Activity [20]: inactive
SMILES: O=C(/C=C/CCc1ccccc1)c1ccco1
- Activity [2]: Non-Toxic
- Activity [12]: Active
- Activity [15]: Active
- Activity [21]: Active
